Assay results: US7951406B2, “Therapeutic compounds isolated from Calomeria amaranthoides” (Caroline Van Haaften, priority 2004, dated 2011)

Experiments:
[1] = test system: human skin fibroblasts; experiment: Cell viability by photomicrography, comparison with Cisplatinum and Docetaxol, fibroblasts; settings: 10 μg and 100 μg, compared with 1 μg; 48 hours
[2] = test system: ovarian cancer cell line JC; settings: 48 hours

| SMILES | cell viability in fibroblasts [1] | cytotoxicity in JC cells, treatments compared ([2]; 10 μg dosage level) | resistance of JC cells [2] |
| --- | --- | --- | --- |
| N.N.[Cl][Pt][Cl] [Cisplatinum] | greater reduction in cell viability |  |  |
| CC(=O)O[C@@]12CO[C@@H]1C[C@H](O)[C@@]1(C)C(=O)[C@H](O)C3=C(C)[C@@H](OC(=O)[C@H](O)[C@@H](NC(=O)OC(C)(C)C)c4ccccc4)C[C@@](O)([C@@H](OC(=O)c4ccccc4)[C@H]21)C3(C)C [Docetaxol] | greater reduction in cell viability | less cytotoxic than either the Calomeria extract or Cisplatinum | more resistant |
